Test results taken from article PMC12321279, “Novel 4,5‐Dihydrothiazole‐Phenylpiperazine Derivatives: Synthesis, Docking Studies and Pharmacological Evaluation as Serotonergic Agents” (Chemmedchem, 2025).

Columns and labels:
mice [1] = assay: Amphetamine‐induced hyperactivity test; assay type: in vivo; details: 30 mg/kg i.p. 60 min before test, amphetamine 3 mg kg^−1 s.c., 20 min observation
Experimental: (§1) The tests were performed on male white mice of the Albino Swiss strain, whose weight was between 24 and 30 g in Experimental Medicine Center, Medical University of Lublin, Poland. The animals were housed (four/five per cage). Before conducting the experimental tests, the animals were subjected to an adaptation that lasted seven days. This consisted of keeping them in a room with relatively constant conditions: a temperature of 22 ± 1 °C, a humidity of 55 ± 5% and lighting that mimicked the natural day and night rhythm (12 h/12 h). Constant access to food and water was provided. Standard feed—LSM Motycz pelleted feed—and tap water were used. Mice were randomly allocated to study groups. Each group was represented by 8–10 animals, depending on the research schedule. The experiments were performed according to the procedures set out in the regulations for animal experiments: National Institute of Health Guidelines for the Care and Use of Laboratory Animals (8th edition) and to the European Community Council Directive for the Care and Use of Laboratory Animals of 22 September 2010 (2010/63/EU). The study was approved by the Local Ethical Committee in Lublin (number of ethical approvals: 27/2023). Tested compounds: FG‐1, FG‐4, FG‐5, FG‐6, FG‐7, FG‐8, and FG‐18 were finely ground in mortars with the addition of the emulsifier Tween‐80. […]

mice [2] = assay: MK‐801‐induced hyperactivity test; assay type: in vivo; details: 30 mg/kg i.p. 60 min before test, MK‐801 0.3 mg kg^−1 s.c., 20 min observation
Experimental: as §1, with “Tween‐80. A suspension was obtained, which was then diluted with aqueous solution of 0.5% methylcellulose (tylose). The mixture was then administered intraperitoneally (i.p.) to the animals 60 min before the start of the experiments. Animals in the control groups received a 0.5% tylose solution. All substances were administered via the same route of administration in appropriate dose and volume of 0.1 mL per 10 g of animal body weight. Prior to the administration of the drug, the animals were weighed, during the interval between tests, they were provided with food, water, and constant living conditions.” for “Tween‐80.”

mice [3] = assay: DOI‐induced head‐twitch reaction (HTR); assay type: in vivo; details: 30 mg kg^−1 i.p. 60 min before DOI, 20 min observation
Experimental: as §1, with “(2010/63/EU).” for “(2010/63/EU). The study was approved by the Local Ethical Committee in Lublin (number of ethical approvals: 27/2023). Tested compounds: FG‐1, FG‐4, FG‐5, FG‐6, FG‐7, FG‐8, and FG‐18 were finely ground in mortars with the addition of the emulsifier Tween‐80.”
Head‐twitch reaction (HTR) is a very characteristic behavior of the head. […] Then, after administration of the tested compounds, DOI was immediately observed for 20 min, and the number of HTR was counted. […]

5‐HT2A receptor = 5‐HT2A receptor (Rattus norvegicus, UniProt P14842); assay: Inhibition of 5‐HT‐evoked contractions in isolated rat ileum; design: segments (1–1.5 cm) of ileum were removed, flushed of luminal contents, and placed in Krebs solution; from tissue; host or cells: isolated rat (Sprague-Dawley) ileum segments; details: 5‐HT 10^−5 M, compounds 10^−8–10^−5 M; for Emax: read-out: EMAX, maximal inhibitory effect on 5‐HT‐induced contractions in the rat ileum; for IC50: IC50, inhibition of 5‐HT‐induced contractions in the rat ileum, contact time 10 min
Experimental: Male rats (Sprague‐Dawley, 160–200 g; Charles River Laboratories; Calco, Italy) were manipulated and cared for in strict compliance with the principles of laboratory animal care. Experimental procedures were conducted in conformity with Italian (D.L. 26/2014) and European (directive 2010/63/EU) regulations on the protection of animals used for scientific purposes and approved by the Italian Ministry. Animal housing complied with recent pharmacological guidance.^[ [40] ^] All animals weighing 160–200 g were used after a 1‐week acclimation period (temperature 23 ± 2 °C; humidity 60%, free access to water and standard food).
The segments were prepared as previously described:^[ [41] ^] the segments were set up in such a way as to record contractions mainly from the longitudinal axis, in an organ bath containing 20 mL of Krebs solution, bubbled with 95% O2 and 5% CO2 and maintained at 37 °C. The tissues were connected to an isotonic transducer (load: 0.5 g), connected to Power Lab system (Ugo Basile, Comerio, Italy). Ileal segments were equilibrated for 60 min^[ [16] ^] followed by three repeated additions of submaximal concentration of 5‐HT (10^−5 M) in order to record stable control contractions. […] The contact time for each concentration was 10 min. The compounds were dissolved in DMSO. […] Results are expressed as mean (SEM). […] The IC50 and Emax values were calculated with the aid of a computer program (GraphPad Prism 5).

mice [4] = assay: Body temperature in normothermic mice; assay type: in vivo
Experimental: The tests were performed on male white mice of the Albino Swiss strain, whose weight was between 24 and 30 g in Experimental Medicine Center, Medical University of Lublin, Poland. The animals were housed (four/five per cage). Before conducting the experimental tests, the animals were subjected to an adaptation that lasted seven days. This consisted of keeping them in a room with relatively constant conditions: a temperature of 22 ± 1 °C, a humidity of 55 ± 5% and lighting that mimicked the natural day and night rhythm (12 h/12 h). Constant access to food and water was provided. Standard feed—LSM Motycz pelleted feed—and tap water were used. Mice were randomly allocated to study groups. Each group was represented by 8–10 animals, depending on the research schedule. […]
Body temperature in normothermic mice was measured in the rectum of animals by thermistor thermometer till 120 min after tested compounds injection. […] The final temperature (tf) was measured 30, 60, 90, and 120 min after the injection of tested compounds. Body temperature changes (Δt) were calculated according to the formula: Δt = tf − ti.

mice [5] = assay: Spontaneous locomotor activity; assay type: in vivo; details: 20 min observation
Experimental: The tests were performed on male white mice of the Albino Swiss strain, whose weight was between 24 and 30 g in Experimental Medicine Center, Medical University of Lublin, Poland. The animals were housed (four/five per cage). Before conducting the experimental tests, the animals were subjected to an adaptation that lasted seven days. This consisted of keeping them in a room with relatively constant conditions: a temperature of 22 ± 1 °C, a humidity of 55 ± 5% and lighting that mimicked the natural day and night rhythm (12 h/12 h). Constant access to food and water was provided. Standard feed—LSM Motycz pelleted feed—and tap water were used. Mice were randomly allocated to study groups. Each group was represented by 8–10 animals, depending on the research schedule. The experiments were performed according to the procedures set out in the regulations for animal experiments: National Institute of Health Guidelines for the Care and Use of Laboratory Animals (8th edition) and to the European Community Council Directive for the Care and Use of Laboratory Animals of 22 September 2010 (2010/63/EU). The study was approved by the Local Ethical Committee in Lublin (number of ethical approvals: 27/2023). Tested compounds: FG‐1, FG‐4, FG‐5, FG‐6, FG‐7, FG‐8, and FG‐18 were finely ground in mortars with the addition of the emulsifier Tween‐80. A suspension was obtained, which was then diluted with aqueous solution of 0.5% methylcellulose (tylose). The mixture was then administered intraperitoneally (i.p.) to the animals 60 min before the start of the experiments. Animals in the control groups received a 0.5% tylose solution. All substances were administered via the same route of administration in appropriate dose and volume of 0.1 mL per 10 g of animal body weight. Prior to the administration of the drug, the animals were weighed, during the interval between tests, they were provided with food, water, and constant living conditions.
An Opto‐Varimex‐4 Auto‐Track animal activity meter (Columbus Instruments, USA) was used to study animal movement, which consists of eight transparent cages with lids measuring 43 × 43 × 32 cm, a set of four infrared transmitters (each transmitter has 16 laser beams) and four detectors to monitor animal movements. Testing was initiated 60 min after compound administration. For the spontaneous locomotor activity study, tylose was administered to the control group and the tested compounds. For the amphetamine‐induced or MK‐801‐induced hyperactivity tests, tylose, the tested compounds and after 30 min, amphetamine (3 mg kg^−1) or MK‐801 (0.3 mg kg^−1) were administered. While the test was being performed, animals were individually caged, initially for 5 min of adaptation, followed by 20 min of actual mobility testing.

[6] = 15 mg kg^−1 i.p. 60 min before test
[7] = 30 mg/kg i.p. 60 min before test

Sequence of 5‐HT2A receptor (P14842 whole entry): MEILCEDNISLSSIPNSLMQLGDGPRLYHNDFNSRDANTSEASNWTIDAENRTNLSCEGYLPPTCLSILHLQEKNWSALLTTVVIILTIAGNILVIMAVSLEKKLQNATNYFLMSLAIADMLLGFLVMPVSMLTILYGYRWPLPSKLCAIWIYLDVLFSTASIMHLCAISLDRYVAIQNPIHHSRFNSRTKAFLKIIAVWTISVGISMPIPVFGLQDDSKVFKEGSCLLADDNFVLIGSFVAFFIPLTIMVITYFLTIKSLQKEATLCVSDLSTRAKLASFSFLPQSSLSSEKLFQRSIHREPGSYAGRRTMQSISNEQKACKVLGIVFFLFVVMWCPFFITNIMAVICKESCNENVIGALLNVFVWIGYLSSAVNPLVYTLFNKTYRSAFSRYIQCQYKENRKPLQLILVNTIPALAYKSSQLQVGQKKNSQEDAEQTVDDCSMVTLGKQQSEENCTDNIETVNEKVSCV

SMILES | MK‐801‐induced hyperactivity (mice [2]) | Emax (5‐HT2A receptor) | IC50 (5‐HT2A receptor) | further results
O=C(NCCCN1CCN(c2ccccc2C2=NCCS2)CC1)c1ccccn1 [FG‐1, N‐(3‐(4‐(2‐(4,5‐dihydrothiazol‐2‐yl) phenyl) piperazin‐1‐yl) propyl) picolinamide] | significant decrease in MK‐801‐induced hyperactivity |  |  | amphetamine‐induced hyperactivity (mice [1]): significant decrease in amphetamine‐induced hyperactivity; DOI‐induced HTR (number of head twitches) (mice [3]): significant decrease in HTR
O=C(NCCCN1CCN(c2cccc(C3=NCCS3)c2)CC1)c1ccccn1 [FG‐2, N‐(3‐(4‐(3‐(4,5‐dihydrothiazol‐2‐yl) phenyl) piperazin‐1‐yl) propyl) picolinamide] |  | 25.4% | 6120 nM | 
O=C(NCCCN1CCN(c2ccccc2C2=NCCS2)CC1)c1ccncc1 [FG‐4, N‐(3‐(4‐(2‐(4,5‐dihydrothiazol‐2‐yl) phenyl) piperazin‐1‐yl) propyl) isonicotinamide] | significant decrease in MK‐801‐induced hyperactivity |  |  | amphetamine‐induced hyperactivity (mice [1]): significant decrease in amphetamine‐induced hyperactivity
O=C(NCCCN1CCN(c2cccc(C3=NCCS3)c2)CC1)c1ccncc1 [FG‐5, N‐(3‐(4‐(3‐(4,5‐dihydrothiazol‐2‐yl) phenyl) piperazin‐1‐yl) propyl) isonicotinamide] |  |  |  | body temperature of normothermic mice (mice [4]; 30 mg kg^−1 i.p., from 30 to 90 min): significant decrease in the body temperature
O=C(NCCCN1CCN(c2ccc(C3=NCCS3)cc2)CC1)c1ccncc1 [FG‐6, N‐(3‐(4‐(4‐(4,5‐dihydrothiazol‐2‐yl) phenyl) piperazin‐1‐yl) propyl) isonicotinamide] | significant decrease in MK‐801‐induced hyperactivity |  |  | spontaneous locomotor activity (mice [5]; [6]): did not change the motility of mice; spontaneous locomotor activity (mice [5]; [7]): significant decrease in spontaneous locomotor activity; body temperature of normothermic mice (mice [4]; 15 mg kg^−1 i.p., from 30 to 90 min and also in 120 min): significant decrease in the body temperature
O=C1C2C3C=CC(C3)C2C(=O)N1OCCCN1CCN(c2ccccc2C2=NCCS2)CC1 (stereo not drawn) [FG‐7, 2‐(3‐(4‐(2‐(4,5‐dihydrothiazol‐2‐yl) phenyl) piperazin‐1‐yl) propoxy)‐3a,4,7,7a‐tetrahydro‐1 H‐4,7‐methanoisoindole‐1,3(2 H)‐dione] |  | 24.5% | 1790 nM | spontaneous locomotor activity (mice [5]; [6]): did not change the motility of mice; spontaneous locomotor activity (mice [5]; [7]): significant decrease in spontaneous locomotor activity
O=C1C2C3C=CC(C3)C2C(=O)N1OCCCN1CCN(c2cccc(C3=NCCS3)c2)CC1 (stereo not drawn) [FG‐8, 2‐(3‐(4‐(3‐(4,5‐dihydrothiazol‐2‐yl) phenyl) piperazin‐1‐yl) propoxy)‐3a,4,7,7a‐tetrahydro‐1H‐4,7‐methanoisoindole‐1,3(2H)‐dione] |  | 21.4% | 155 nM | 
O=C(NCCCN1CCN(c2ccc(C3=NCCS3)cc2)CC1)C1CC2C=CC1C2 (stereo not drawn) [FG‐18, Endo‐ N‐(3‐(4‐(4‐(4,5‐dihydrothiazol‐2‐yl)phenyl)piperazin‐1‐yl)propyl) bicyclo[2.2.1]hept‐5‐ene‐2‐carboxamide] |  | 32.8% | 2970 nM | DOI‐induced HTR (number of head twitches) (mice [3]): significant decrease in HTR
